Data from US20150105252A1, “SUBSTITUTED PYRAZOLES AS HERBICIDES” (E I DU PONT DE NEMOURS AND COMPANY, priority 2013, published 2015).

Columns and labels:
kochia = experiment: Test D postemergence; assay type: in vivo, Kochia scoparia; settings: scale 0 to 100
Text: (§1) Seeds of plant species selected from bluegrass (annual bluegrass, Poa annua), blackgrass (Alopecurus myosuroides), canarygrass (littleseed canarygrass, Phalaris minor), chickweed (common chickweed, Stellaria media), galium (catchweed bedstraw, Galium aparine), bromegrass, downy (downy bromegrass, Bromus tectorum), field poppy (Papaver rhoeas), field violet (Viola arvensis), foxtail, green (green foxtail, Setaria viridis), deadnettle (henbit deadnettle, Lamium amplexicaule), ryegrass, Italian (Italian ryegrass, Lolium multiflorum), kochia (Kochia scoparia), lambsquarters (Chenopodium album), oilseed rape (Brassica napus), pigweed (redroot pigweed, Amaranthus retroflexus), chamomile (scentless chamomile, Matricaria inodora), speedwell (bird's-eye speedwell, Veronica persica), barley, spring (spring barley, Hordeum vulgare), wheat, spring (spring wheat, Triticum aestivum), buckwheat, wild (wild buckwheat, Polygonum convolvulus), mustard, wild (wild mustard, Sinapis arvensis), oat, wild (wild oat, Avena fatua), radish, wild (wild radish, Raphanus raphanistrum), windgrass (Apera spica-venti), Russian thistle (Salsola kali), barley, winter (winter barley, Hordeum vulgare), and wheat, winter (winter wheat, Triticum aestivum) were planted into a silt loam soil and treated preemergence with test chemicals formulated in a non-phytotoxic solvent mixture which included a surfactant.
(§2) At the same time, these species were planted in pots containing Redi-Earth® planting medium (Scotts Company, 14111 Scottslawn Road, Marysville, Ohio 43041) comprising spaghnum peat moss, vermiculite, wetting agent and starter nutrients and treated with postemergence applications of the test chemicals formulated in the same manner. Plants ranged in height from 2 to 18 cm (1- to 4-leaf stage). Treated plants and controls were maintained in a controlled growth environment for 14 to 21 days after which time all species were compared to controls and visually evaluated. Plant response ratings, summarized in Table D, are based on a scale of 0 to 100 where 0 is no effect and 100 is complete control. A dash (-) response means no test result.

oilseed rape = experiment: Test D preemergence; assay type: in vivo, Brassica napus; settings: scale 0 to 100
Text: as §1, §2

wild poinsettia = experiment: Test F preemergence; assay type: in vivo, Euphorbia heterophylla
Procedure, shortened: (§3)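 Visual injury was scored from 0 (none) to 100 (complete control) relative to untreated controls after 14–21 days in a greenhouse. Before that, formulated compound (solvent plus surfactant) was sprayed either on silt-loam soil right after sowing or on emerged plants at the 1–4-leaf stage, 2–18 cm tall.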

dayflower, VA = experiment: Test F preemergence; assay type: in vivo, Commelina virginica
Procedure, shortened: as §3

nightshade = experiment: Test F preemergence; assay type: in vivo, Solanum ptycanthum
Procedure, shortened: as §3

field poppy = experiment: Test D postemergence; assay type: in vivo, Papaver rhoeas; settings: scale 0 to 100
Procedure, shortened: (§4)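 Whole-plant herbicidal activity; pre- and postemergence sprays. Soil: silt loam (pre); peat/vermiculite medium (post, 1–4 leaf). Assessment: 14–21 days, visual, 0 = no effect, 100 = complete control.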

soybean = experiment: Test F preemergence; assay type: in vivo, Glycine max
Procedure, shortened: as §3

large crabgrass = experiment: Test F preemergence; assay type: in vivo, Digitaria sanguinalis
Procedure, shortened: as §3

morningglory = experiment: Test F preemergence; assay type: in vivo, Ipomoea coccinea
Procedure, shortened: as §3

radish, wild [1] = experiment: Test D postemergence; assay type: in vivo, Raphanus raphanistrum; settings: scale 0 to 100
Text: as §1, §2

foxtail, green = experiment: Test D postemergence; assay type: in vivo, Setaria viridis; settings: scale 0 to 100
Procedure, shortened: as §4

lambsquarters = experiment: Test F preemergence; assay type: in vivo, Chenopodium album
Procedure, shortened: as §3

radish, wild [2] = experiment: Test D preemergence; assay type: in vivo, Raphanus raphanistrum; settings: scale 0 to 100
Procedure, shortened: as §4

galium = experiment: Test D postemergence; assay type: in vivo, Galium aparine; settings: scale 0 to 100
Procedure, shortened: as §4

[3] = Preemergence, 31 g ai/ha, scale 0 to 100
[4] = Preemergence, 62 g ai/ha, scale 0 to 100
[5] = Preemergence, 125 g ai/ha, scale 0 to 100
[6] = preemergence, 8 g ai/ha, scale 0 to 100, 100 is complete control
[7] = preemergence, 16 g ai/ha, scale 0 to 100, 100 is complete control
[8] = Preemergence, 16 g ai/ha, scale 0 to 100

In the case of `CCCc1cc(C(=O)NCC(F)(F)F)nn1Cc1ccnc(C(F)(F)F)c1` [Compound 105], the “Kochia plant response rating” value (kochia; Postemergence, 31 g ai/ha) is reported as 75, the “Kochia plant response rating” value (kochia; Postemergence, 125 g ai/ha) is reported as 80 and the “Kochia plant response rating” value (kochia; Postemergence, 250 g ai/ha) is reported as 80. The “Kochia plant response rating” value (kochia; postemergence, 62 g ai/ha) was 75, the “Plant response rating, Oilseed Rape” value (oilseed rape; 31 g ai/ha) was 0 and the “Plant response rating, Oilseed Rape” value (oilseed rape; 62 g ai/ha) was 10. For the same molecule, the “Plant response rating, Oilseed Rape” value (oilseed rape; 125 g ai/ha) was 70, the “Plant response rating, Oilseed Rape” value (oilseed rape; 250 g ai/ha) was 95 and the “Plant response rating, Wild Poinsettia” value (wild poinsettia; [3]) was 5. For the same molecule, the “Plant response rating, Wild Poinsettia” value (wild poinsettia; [4]) was 60, the “Plant response rating, Wild Poinsettia” value (wild poinsettia; [5]) was 95 and the “Plant response rating, Wild Poinsettia” value (wild poinsettia; [6]) was 0. The “Plant response rating, Wild Poinsettia” value (wild poinsettia; [7]) was 0, the “Plant response rating, Dayflower, VA” value (dayflower, VA; [3]) was 50 and the “Plant response rating, Dayflower, VA” value (dayflower, VA; [4]) was 80. For the same molecule, the “Plant response rating, Dayflower, VA” value (dayflower, VA; [5]) was 98, the “Plant response rating, Dayflower, VA” value (dayflower, VA; [6]) was 0 and the “Plant response rating, Dayflower, VA” value (dayflower, VA; [7]) was 40. For the same molecule, the “Plant response rating, Nightshade” value (nightshade; [3]) was 70, the “Plant response rating, Nightshade” value (nightshade; [4]) was 100 and the “Plant response rating, Nightshade” value (nightshade; [5]) was 100. The “Plant response rating, Nightshade” value (nightshade; [6]) was 0, the “Plant response rating, Nightshade” value (nightshade; [7]) was 65 and the “Field Poppy plant response rating” value (field poppy; Postemergence, 31 g ai/ha) was 65. The “Field Poppy plant response rating” value (field poppy; Postemergence, 125 g ai/ha) was 80, the “Field Poppy plant response rating” value (field poppy; Postemergence, 250 g ai/ha) was 95 and the “Field Poppy plant response rating” value (field poppy; postemergence, 62 g ai/ha) was 80. The “Plant response rating, Soybean” value (soybean; [3]) was 100, the “Plant response rating, Soybean” value (soybean; [4]) was 80 and the “Plant response rating, Soybean” value (soybean; [5]) was 100. For the same molecule, the “Plant response rating, Soybean” value (soybean; [6]) was 0, the “Plant response rating, Soybean” value (soybean; [7]) was 0 and the “Plant response rating, Large Crabgrass” value (large crabgrass; [3]) was 98. The “Plant response rating, Large Crabgrass” value (large crabgrass; [4]) was 100, the “Plant response rating, Large Crabgrass” value (large crabgrass; [5]) was 100 and the “Plant response rating, Large Crabgrass” value (large crabgrass; [6]) was 65. For the same molecule, the “Plant response rating, Large Crabgrass” value (large crabgrass; [7]) was 70, the “Plant response rating, Morningglory” value (morningglory; [3]) was 25 and the “Plant response rating, Morningglory” value (morningglory; [4]) was 90. The “Plant response rating, Morningglory” value (morningglory; [5]) was 95, the “Plant response rating, Morningglory” value (morningglory; [6]) was 20 and the “Plant response rating, Morningglory” value (morningglory; [7]) was 25. The “Radish, Wild plant response rating” value (radish, wild [1]; Postemergence, 31 g ai/ha) was 35, the “Radish, Wild plant response rating” value (radish, wild [1]; Postemergence, 125 g ai/ha) was 70 and the “Radish, Wild plant response rating” value (radish, wild [1]; Postemergence, 250 g ai/ha) was 80. For the same molecule, the “Radish, Wild plant response rating” value (radish, wild [1]; postemergence, 62 g ai/ha) was 55, the “Foxtail, Green plant response rating” value (foxtail, green; Postemergence, 31 g ai/ha) was 10 and the “Foxtail, Green plant response rating” value (foxtail, green; Postemergence, 125 g ai/ha) was 70. For the same molecule, the “Foxtail, Green plant response rating” value (foxtail, green; Postemergence, 250 g ai/ha) was 80, the “Foxtail, Green plant response rating” value (foxtail, green; postemergence, 62 g ai/ha) was 65 and the “Plant response rating, Lambsquarters” value (lambsquarters; [3]) was 100. For the same molecule, the “Plant response rating, Lambsquarters” value (lambsquarters; [4]) was 100, the “Plant response rating, Lambsquarters” value (lambsquarters; [5]) was 100 and the “Plant response rating, Lambsquarters” value (lambsquarters; [6]) was 35. For the same molecule, the “Plant response rating, Lambsquarters” value (lambsquarters; [7]) was 35, the “Plant response rating, Radish, Wild” value (radish, wild [2]; 31 g ai/ha) was 35 and the “Plant response rating, Radish, Wild” value (radish, wild [2]; 62 g ai/ha) was 100. For the same molecule, the “Plant response rating, Radish, Wild” value (radish, wild [2]; 125 g ai/ha) was 100, the “Plant response rating, Radish, Wild” value (radish, wild [2]; 250 g ai/ha) was 100 and the “Galium plant response rating” value (galium; Postemergence, 31 g ai/ha) was 70. For the same molecule, the “Galium plant response rating” value (galium; Postemergence, 125 g ai/ha) was 80, the “Galium plant response rating” value (galium; Postemergence, 250 g ai/ha) was 85 and the “Galium plant response rating” value (galium; postemergence, 62 g ai/ha) was 75.
`CCOc1cc(C(=O)NC(C)C)nn1Cc1ccnc(C(F)(F)F)c1` [Compound 188] was tested, and the “Kochia plant response rating” value (kochia; Postemergence, 31 g ai/ha) was 75, the “Kochia plant response rating” value (kochia; Postemergence, 125 g ai/ha) was 80 and the “Kochia plant response rating” value (kochia; Postemergence, 250 g ai/ha) was 85. For the same molecule, the “Kochia plant response rating” value (kochia; postemergence, 62 g ai/ha) was 75, the “Plant response rating, Oilseed Rape” value (oilseed rape; 62 g ai/ha) was 85 and the “Plant response rating, Oilseed Rape” value (oilseed rape; 125 g ai/ha) was 100. The “Plant response rating, Oilseed Rape” value (oilseed rape; 250 g ai/ha) was 100, the “Plant response rating, Wild Poinsettia” value (wild poinsettia; [4]) was 100 and the “Plant response rating, Wild Poinsettia” value (wild poinsettia; [5]) was 100. For the same molecule, the “Plant response rating, Wild Poinsettia” value (wild poinsettia; [6]) was 10, the “Plant response rating, Dayflower, VA” value (dayflower, VA; [4]) was 90 and the “Plant response rating, Dayflower, VA” value (dayflower, VA; [5]) was 100. For the same molecule, the “Plant response rating, Dayflower, VA” value (dayflower, VA; [6]) was 0, the “Plant response rating, Nightshade” value (nightshade; [8]) was 98 and the “Plant response rating, Nightshade” value (nightshade; [4]) was 95. The “Plant response rating, Nightshade” value (nightshade; [5]) was 98, the “Plant response rating, Nightshade” value (nightshade; [6]) was 0 and the “Field Poppy plant response rating” value (field poppy; Postemergence, 31 g ai/ha) was 60. The “Field Poppy plant response rating” value (field poppy; Postemergence, 125 g ai/ha) was 75, the “Field Poppy plant response rating” value (field poppy; Postemergence, 250 g ai/ha) was 95 and the “Field Poppy plant response rating” value (field poppy; postemergence, 62 g ai/ha) was 60. The “Plant response rating, Soybean” value (soybean; [4]) was 30, the “Plant response rating, Soybean” value (soybean; [5]) was 85 and the “Plant response rating, Soybean” value (soybean; [6]) was 0. The “Plant response rating, Large Crabgrass” value (large crabgrass; [4]) was 100, the “Plant response rating, Large Crabgrass” value (large crabgrass; [5]) was 100 and the “Plant response rating, Large Crabgrass” value (large crabgrass; [6]) was 90. The “Plant response rating, Large Crabgrass” value (large crabgrass; preemergence, scale 0 to 100, 100 is complete control) was 100, the “Plant response rating, Morningglory” value (morningglory; [8]) was 30 and the “Plant response rating, Morningglory” value (morningglory; [4]) was 70. The “Plant response rating, Morningglory” value (morningglory; [5]) was 100, the “Plant response rating, Morningglory” value (morningglory; [6]) was 65 and the “Radish, Wild plant response rating” value (radish, wild [1]; Postemergence, 31 g ai/ha) was 70. The “Radish, Wild plant response rating” value (radish, wild [1]; Postemergence, 125 g ai/ha) was 70, the “Radish, Wild plant response rating” value (radish, wild [1]; Postemergence, 250 g ai/ha) was 90 and the “Radish, Wild plant response rating” value (radish, wild [1]; postemergence, 62 g ai/ha) was 70. For the same molecule, the “Foxtail, Green plant response rating” value (foxtail, green; Postemergence, 31 g ai/ha) was 25, the “Foxtail, Green plant response rating” value (foxtail, green; Postemergence, 125 g ai/ha) was 25 and the “Foxtail, Green plant response rating” value (foxtail, green; Postemergence, 250 g ai/ha) was 55. The “Foxtail, Green plant response rating” value (foxtail, green; postemergence, 62 g ai/ha) was 25, the “Plant response rating, Lambsquarters” value (lambsquarters; [4]) was 100 and the “Plant response rating, Lambsquarters” value (lambsquarters; [5]) was 100. For the same molecule, the “Plant response rating, Lambsquarters” value (lambsquarters; [6]) was 50, the “Plant response rating, Radish, Wild” value (radish, wild [2]; 62 g ai/ha) was 100 and the “Plant response rating, Radish, Wild” value (radish, wild [2]; 125 g ai/ha) was 100. For the same molecule, the “Plant response rating, Radish, Wild” value (radish, wild [2]; 250 g ai/ha) was 100, the “Galium plant response rating” value (galium; Postemergence, 31 g ai/ha) was 75 and the “Galium plant response rating” value (galium; Postemergence, 125 g ai/ha) was 85. The “Galium plant response rating” value (galium; Postemergence, 250 g ai/ha) was 90 and the “Galium plant response rating” value (galium; postemergence, 62 g ai/ha) was 75.
